Measured values reported in article PMC11851430, “Workflow for E3 Ligase Ligand Validation for PROTAC Development” (ACS Chemical Biology, 2025).

Experiments:
VHL = VHL (Homo sapiens, UniProt P40337); experiment: cell-based; set-up: full-length, NanoLuc fusion (Promega N2741); species or system HEK293T; NanoBRET VHL tracer displacement in permeabilized cells, NanoLuc-VHL fusion; conditions: permeabilized cells; read-out: VHL permeabilized (IC50±sd)/µM
full-length AAK1 = full-length AAK1 (Homo sapiens, UniProt Q2M2I8); experiment: NanoBRET target engagement assay, intact and permeabilized cells
Chain of full-length AAK1 (Q2M2I8 whole entry): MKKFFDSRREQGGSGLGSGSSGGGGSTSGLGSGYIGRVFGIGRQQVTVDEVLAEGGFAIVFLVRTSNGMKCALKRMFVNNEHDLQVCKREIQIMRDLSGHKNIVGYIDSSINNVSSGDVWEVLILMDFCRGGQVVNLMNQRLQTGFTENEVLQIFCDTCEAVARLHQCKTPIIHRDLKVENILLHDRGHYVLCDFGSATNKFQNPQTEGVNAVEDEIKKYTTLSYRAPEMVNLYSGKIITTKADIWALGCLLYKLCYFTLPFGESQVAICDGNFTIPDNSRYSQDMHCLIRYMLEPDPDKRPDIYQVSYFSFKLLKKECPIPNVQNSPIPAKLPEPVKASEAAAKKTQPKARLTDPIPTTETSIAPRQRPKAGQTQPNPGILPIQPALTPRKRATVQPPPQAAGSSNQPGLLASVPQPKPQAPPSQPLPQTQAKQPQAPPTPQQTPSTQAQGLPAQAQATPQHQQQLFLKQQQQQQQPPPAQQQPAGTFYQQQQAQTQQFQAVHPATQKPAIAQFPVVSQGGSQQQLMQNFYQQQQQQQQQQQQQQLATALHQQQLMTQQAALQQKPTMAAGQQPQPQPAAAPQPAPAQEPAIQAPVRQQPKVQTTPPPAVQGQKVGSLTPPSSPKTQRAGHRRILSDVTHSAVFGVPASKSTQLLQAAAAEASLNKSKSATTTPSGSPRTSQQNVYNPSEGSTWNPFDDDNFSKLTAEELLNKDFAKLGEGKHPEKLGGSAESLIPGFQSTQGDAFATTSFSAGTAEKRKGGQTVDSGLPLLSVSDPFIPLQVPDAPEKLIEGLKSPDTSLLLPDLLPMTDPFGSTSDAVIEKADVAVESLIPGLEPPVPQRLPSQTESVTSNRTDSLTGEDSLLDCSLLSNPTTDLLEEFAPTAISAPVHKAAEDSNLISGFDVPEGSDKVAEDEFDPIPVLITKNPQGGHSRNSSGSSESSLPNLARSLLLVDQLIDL
Procedure: (§9) Compounds were pipetted at various concentrations using an Echo acoustic dispenser (Labcyte), immediately followed by Tracer K10 (Promega, Tracer DB ID: T000008) for AAK1 and Aurora A and VHL Tracer (Promega, Tracer DB ID: T000019) for VHL, at an optimum KD concentration chosen from TracerDB ( tracerdb.org), respectively.
(§10) To measure the BRET signal, the NanoBRET® NanoGlo Substrate (Promega:
(§11) N1573) was added as per the manufacturer’s protocol, and filtered luminescence was measured on a PHERAstar plate reader (BMG Labtech) equipped with a luminescence filter pair (450 nm BP filter (donor) and 610 nm LP filter (acceptor)). For NanoBRET® measurement in permeabilized cells, 25 nL of digitonin (0.05 μg/μL) was pipetted into each well using an
(§12) After incubation, the BRET signals were measured by a PHERAstar plate reader (BMG Labtech) following the same procedure as intact NanoBRET® measurement. Competitive displacement data were then normalized to controls and were plotted using GraphPad Prism 9 software employing a normalized 3-parameter curve fit with the following equation:

AURKA = biological target: T1, AURKA (Homo sapiens, UniProt O14965); experiment: as above; conditions: mean of duplicates, ^a values estimated by extrapolation
T1 sequence (O14965 1-403): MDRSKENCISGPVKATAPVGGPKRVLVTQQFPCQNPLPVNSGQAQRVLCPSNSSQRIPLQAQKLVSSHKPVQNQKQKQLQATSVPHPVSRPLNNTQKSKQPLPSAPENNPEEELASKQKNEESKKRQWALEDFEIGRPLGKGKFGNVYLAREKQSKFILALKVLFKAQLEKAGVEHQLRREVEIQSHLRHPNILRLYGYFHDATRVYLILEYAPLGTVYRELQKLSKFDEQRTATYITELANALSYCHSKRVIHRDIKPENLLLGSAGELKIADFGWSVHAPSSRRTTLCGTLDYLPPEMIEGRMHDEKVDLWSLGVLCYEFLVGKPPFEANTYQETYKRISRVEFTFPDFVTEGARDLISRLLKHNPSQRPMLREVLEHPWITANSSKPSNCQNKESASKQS
Procedure: as §9, §10, §11, §12

[1] = biological target: T2, kinase protein levels in MCF-7 cells (Homo sapiens, UniProt A0A096LP01); experiment: TMT-labeled quantitative proteomics; assay type: cell-based; conditions: MCF7, 1 µM
T2 construct: endogenous in cells; host or cells: MCF-7
T2 sequence (A0A096LP01 whole entry): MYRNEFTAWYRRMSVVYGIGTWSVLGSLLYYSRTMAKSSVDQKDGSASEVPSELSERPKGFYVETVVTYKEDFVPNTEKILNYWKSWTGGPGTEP
Procedure: (§1) 50 µl of SDS Lysis Buffer (2% SDS, 50 mM TRIS pH 8.5, 10 mM TCEP, 40 mM CAA) was added to each sample. Cells were transferred into low binding reaction tubes (Eppendorf:
(§2) Methanol/Chloroform Precipitation. 200 µl of methanol and 50 µl of chloroform were added to each sample reaction tube and mixed via vortex. 150 µl of milliQ-H2O were added and samples were vortexed further. Samples were centrifuged for 5 minutes at 15000 g and the aqueous layer above the interphase was removed. 150 µl of methanol was added, samples were vortexed and centrifuged for 10 minutes at 15000 g to precipitate the pellet. The aforementioned wash procedure was repeated twice before transferring the pellet to a new low bind reaction tube in which it was allowed to dry for 5 minutes.
(§3) Dissolving the Protein Pellet and Protein Quantification. 50 µl of digestion buffer (8 M Urea, 50 mM TRIS pH 8) was added to each sample before vortexing and shaking at 750 rpm at room temperature for 10 minutes to solubilize the pellet. Protein quantification via PierceTM […]
(§4) Protein Digestion. Samples were diluted 1:2 with 50 mM TRIS pH 8.5 to reach a final concentration of 4 M Urea. Lys-C (Promega: VA1170) was added at a 1:100 enzyme/substrate ratio. Samples were agitated at 550 rpm and 37 °C for 3 h. Samples were further diluted with 50 mM TRIS pH 8.5 to a final concentration of 1 M Urea and Trypsin (Promega: V5280) was added at a 1:100 enzyme/substrate ratio. Samples were agitated overnight at 550 rpm and 37 °C. The digestion was stopped the following day via addition of TFA to a final concentration […]
(§5) Solid Phase Extraction via C18 Cartridges. Sep-Pak C18 Cartridges (Waters: WAT054955) were used for solid phase extraction of digested peptides. For preconditioning of C18 cartridges, 1 mL of methanol was added to each column followed by 1 mL of solution B (0.1% formic acid, 80% acetonitrile) and 1 mL of solution A (0.1% formic acid, ddH2O) twice. Samples […]
(§6) were loaded to their respective columns and once samples had passed, columns were washed twice with solution A to remove unwanted components from the loading step. Elution of samples was carried out via introduction of 40% and 60% acetonitrile steps. Samples were dried and snap frozen in liquid nitrogen.
(§7) TMT-Labeling. Desalted peptides were dried and resuspended in TMT-labeling buffer (200 mM EPPS pH 8.2, 20% acetonitrile). 10 μg of peptides per condition were subjected to TMT labeling with 1:2.5 peptide TMT ratio (w/w) for 1 h at room temperature. The labeling reaction was quenched by addition of hydroxylamine to a final concentration of 0.5% and incubation at room temperature for 15 minutes. Successful TMT labeling was verified by mixing equimolar ratios of peptides and subjecting the mix to single shot LC-MS/MS analysis. For high pH reversed phase fractionation on a Dionex analytical HPLC, 50 µg of pooled and purified TMT labelled samples were resuspended in 10 mM ammonium-bicarbonate (ABC), 5% acetonitrile, and separated on a 250 mm long C18 column (Aeris Peptide XB-C18, 4.6 mm ID, 2.6 µm particle size; Phenomenex) using a multistep gradient from 100% solvent A (5% acetonitrile, 10 mM ABC in water) to 60% solvent B (90% acetonitrile, 10 mM ABC in water) over 70 minutes. Eluting peptides were collected every 45 seconds into a total of 96 fractions, which were cross-concatenated into 24 fractions and dried in a vacuum concentrator and resuspended in 3% acetonitrile with 0.1% TFA for LC-MS analysis.
(§8) Mass spectrometry data acquisition. Tryptic peptides were analyzed on an Orbitrap Lumos coupled to an easy nLC 1200 (ThermoFisher Scientific) using a 35 cm long, 75 µm ID fused-silica column packed in house with 1.9 µm C18 particles (Reprosil pur, Dr. Maisch), and kept at 50 °C using an integrated column oven (Sonation). HPLC solvents consisted of 0.1% formic acid in water (buffer A) and 0.1% formic acid and 80% acetonitrile in water (buffer B). Assuming

[2] = biological target: T3, kinase protein levels in MCF-7 cells (Homo sapiens, UniProt Q9BTL3); experiment: TMT-labeled quantitative proteomics; assay type: cell-based; conditions: protein FAM103A1; MCF7; 1 µM; set5
T3 construct: endogenous in cells; host or cells: MCF-7
T3 sequence (Q9BTL3 whole entry): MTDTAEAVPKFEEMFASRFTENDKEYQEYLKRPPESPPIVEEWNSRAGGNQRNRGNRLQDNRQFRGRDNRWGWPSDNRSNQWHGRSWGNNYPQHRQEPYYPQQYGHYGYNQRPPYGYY
Procedure: as §1, §2, §3, §4, §5, §6, §7, §8

[3] = system: kinase protein levels in MCF-7 cells; experiment: TMT-labeled quantitative proteomics; assay type: cell-based, human; conditions: for kinase degradation: MCF-7 cells, 1 μM, 6 h; for log2FC (compound/DMSO): MCF7, 1 µM, set5
Procedure: as §1, §2, §3, §4, §5, §6, §7, §8

[4] = biological target: T4, kinase protein levels in MCF-7 cells (Homo sapiens, UniProt A0A0U1RRE5); experiment: TMT-labeled quantitative proteomics; assay type: cell-based; conditions: protein NBDY; MCF7; 1 µM; set2
T4 construct: endogenous in cells; host or cells: MCF-7
T4 sequence (A0A0U1RRE5 1-68): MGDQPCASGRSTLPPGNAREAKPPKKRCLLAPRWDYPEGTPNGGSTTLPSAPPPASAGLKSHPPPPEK
Procedure: as §1, §2, §3, §4, §5, §6, §7, §8

[5] = biological target: T5, kinase protein levels in MCF-7 cells (Homo sapiens, UniProt A0A0B4J2F0); experiment: TMT-labeled quantitative proteomics; assay type: cell-based; conditions: protein PIGBOS1; MCF7; 1 µM; set2
T5 construct: endogenous in cells; host or cells: MCF-7
T5 sequence (A0A0B4J2F0 1-54): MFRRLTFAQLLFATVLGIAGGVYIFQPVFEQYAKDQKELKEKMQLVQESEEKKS
Procedure: as §1, §2, §3, §4, §5, §6, §7, §8

[6] = biological target: T6, kinase protein levels in MCF-7 cells (Homo sapiens, UniProt A0A024RBG1); experiment: TMT-labeled quantitative proteomics; assay type: cell-based; conditions: protein NUDT4B; MCF7; 1 µM; set2
T6 construct: endogenous in cells; host or cells: MCF-7
T6 sequence (A0A024RBG1 whole entry): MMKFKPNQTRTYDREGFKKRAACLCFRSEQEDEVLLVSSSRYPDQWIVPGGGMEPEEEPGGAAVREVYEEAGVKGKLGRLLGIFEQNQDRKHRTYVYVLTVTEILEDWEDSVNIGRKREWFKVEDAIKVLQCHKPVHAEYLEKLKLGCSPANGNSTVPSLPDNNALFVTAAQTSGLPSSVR
Procedure: as §1, §2, §3, §4, §5, §6, §7, §8

[7] = biological target: T7, kinase protein levels in MCF-7 cells (Homo sapiens, UniProt P0DPI2); experiment: TMT-labeled quantitative proteomics; assay type: cell-based; conditions: protein GATD3; MCF7; 1 µM; set2
T7 construct: endogenous in cells; host or cells: MCF-7
T7 sequence (P0DPI2 42-268): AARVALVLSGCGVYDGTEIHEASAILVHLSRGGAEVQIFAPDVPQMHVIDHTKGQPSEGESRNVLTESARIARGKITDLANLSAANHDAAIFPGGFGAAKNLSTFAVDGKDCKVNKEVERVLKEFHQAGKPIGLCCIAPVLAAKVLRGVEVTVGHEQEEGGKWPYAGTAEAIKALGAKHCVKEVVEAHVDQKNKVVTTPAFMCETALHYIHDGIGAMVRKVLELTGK
Procedure: as §1, §2, §3, §4, §5, §6, §7, §8

Jurkat cells = experiment: CellTiterGlo cell viability assay; assay type: cell-based, human; conditions: 24 h
Procedure: The effects of the compounds on cell viability was determined using the CellTiter-Glo® 2.0 Cell Viability Assay (Promega: G9241) following manufacturer’s protocol. Ten µL of Jurkat cells at […]
After equilibration, PROTACs were titrated at various concentrations using an Echo acoustic […]
volume of CellTiter-Glo® 2.0 reagent (10 µL) was added to each well and cells were incubated for 10 minutes at room temperature. Filtered luminescence was measured on a PHERAstar plate reader (BMG Labtech) and data was evaluated using GraphPad Prism 9 software employing a normalized curve it with the following equation: Y=Bottom + (Top-Bottom)/(1+10(LogEC50-X) *HillSlope).
Sample preparation. Jurkat cells (ATCC © HTB-22) were cultured in RPMI (Thermo: […]

[8] = AAK1 intact (IC50±sd)/μM, NanoBRET, intact cells, mean of duplicates, ^a values estimated by extrapolation
[9] = AAK1 permeabilized (IC50±sd)/μM, NanoBRET, permeabilized cells, mean of duplicates
[10] = AURKA intact (IC50±sd)/μM, intact cells
[11] = AURKA permeabilized (IC50±sd)/μM, permeabilized cells
[12] = protein NBPF19;NBPF15;NBPF8;NBPF10;NBPF3;NBPF11;NBPF26;NBPF14;NBPF1;NBPF12

Chain of VHL (P40337 whole entry, the tested form may be a part): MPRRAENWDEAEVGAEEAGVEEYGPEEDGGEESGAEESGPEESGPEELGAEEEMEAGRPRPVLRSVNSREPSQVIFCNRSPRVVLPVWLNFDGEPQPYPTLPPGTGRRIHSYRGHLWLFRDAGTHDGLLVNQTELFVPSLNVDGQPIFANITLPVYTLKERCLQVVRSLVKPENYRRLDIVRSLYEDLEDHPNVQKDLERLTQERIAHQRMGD

Structure (SMILES) | IC50 (VHL) [µM] | IC50 (full-length AAK1; [8]) [µM] | IC50 (full-length AAK1; [9]) [µM] | IC50 (AURKA; [10]) [µM] | IC50 (AURKA; [11]) [µM] | P.Value (compound/DMSO) ([1]; protein LINC00493, set5) | log2FC (compound/DMSO) ([1]; protein LINC00493, set5) | P.Value (compound/DMSO) [2] | log2FC (compound/DMSO) [2] | kinase degradation [3] | log2FC (compound/DMSO) ([3]; protein ARHGEF5;ARHGEF35) | log2FC (compound/DMSO) [3, 12] | other results
Cc1ncsc1-c1ccc(CNC(=O)[C@@H]2C[C@@H](O)CN2C(=O)[C@@H](NC(=O)CCCCCCN2CCN(c3cc(Nc4cc(C5CC5)[nH]n4)nc(Nc4ccc(CC#N)cc4)n3)CC2)C(C)(C)C)cc1 [4-c] | 4.32 ± 1.46 | 0.443 ± 0.043 | 0.178 ± 0.029 | ~5.98 | 2.73 ± 0.78 | 0.06841 | 0.3546 | 0.9983 | -0.0003068 | significant degradation of several kinases | 0.09465 | -0.3485 | 
CC(=O)N[C@H](C(=O)N1C[C@H](O)C[C@H]1C(=O)NCc1ccc(-c2scnc2C)cc1OCCOCCOCCOCCOCCC(=O)N1CCN(c2cc(Nc3cc(C4CC4)[nH]n3)nc(Nc3ccc(CC#N)cc3)n2)CC1)C(C)(C)C [4-d] | 0.366 ± 0.064 | 0.126 ± 0.033 | 0.038 ± 0.006 | 4.62 ± 1.12 | 1.52 ± 0.061 |  |  |  |  | did not result in significant degradation of any kinase |  |  | P.Value (compound/DMSO) ([1]; protein SMIM26, set2): 0.9318; log2FC (compound/DMSO) ([1]; protein SMIM26, set2): 0.01005; P.Value (compound/DMSO) [4]: 0.03785; log2FC (compound/DMSO) [4]: -0.3975; P.Value (compound/DMSO) [5]: 0.6355; log2FC (compound/DMSO) [5]: 0.04834; P.Value (compound/DMSO) [6]: 0.1315; log2FC (compound/DMSO) [6]: -0.2481; P.Value (compound/DMSO) [7]: 0.2539; log2FC (compound/DMSO) [7]: -0.1491
Cc1ncsc1-c1ccc(CNC(=O)[C@@H]2C[C@@H](O)CN2C(=O)[C@@H](NC(=O)CCOCCOCCN2CCN(c3ccc(Nc4ncc(Cl)c(Nc5ccccc5C(N)=O)n4)cc3)CC2)C(C)(C)C)cc1 [6-a] | 1.123 ± 0.005 | 0.088 ± 0.003 | 0.028 ± 0.001 | 0.203 ± 0.01 | 0.105 ± 0.007 | 0.02321 | -0.4581 | 0.2865 | 0.1658 | significant degradation of several kinases | 0.1364 | -0.2637 | effect on cell viability (cytotoxicity) (Jurkat cells): particularly pronounced effects on cell viability; IC50 (Jurkat cells; Homo sapiens, mean of triplicates, ^b/^c values estimated, read-out: IC50±sd/μM (cell viability)): ~0.8 µM
Cc1ncsc1-c1ccc(CNC(=O)[C@@H]2C[C@@H](O)CN2C(=O)[C@@H](NC(=O)CCOCCOCCOCCOCCOCCOCCN2CCN(c3cc(Nc4cc(C5CC5)[nH]n4)nc(Nc4ccc(CC#N)cc4)n3)CC2)C(C)(C)C)cc1 [4-b] | 0.97 ± 0.013 | ~1.84 | 0.081 | ~18.9 | 4.84 ± 2.01 | 0.7132 | 0.05687 | 0.9701 | 0.005351 | did not result in significant degradation of any kinase | 0.1142 | 0.1563 | AAK1 intact (IC50±sd)/μM (full-length AAK1; NanoBRET, intact cells, mean of duplicates, ^a values estimated by extrapolation): single-digit micromolar; cell permeability / cell penetration (full-length AAK1; as shown by the NanoBRET data (intact vs permeabilized cells)): Inefficient cell penetration
